Read-outs that look alike come from different tables or passages of the source.
Experiments:
Assay type in all cases: cell-based
[1] = target: SARS-CoV-2 3a protein (Severe acute respiratory syndrome coronavirus 2, UniProt P0DTC3)
[2] = target: T1, SARS-CoV-2 E protein (Severe acute respiratory syndrome coronavirus 2, UniProt P0DTC4)
[3] = target: T1, SARS-CoV-2 E protein; remark: listed apart in the source
[4] = target: T1, SARS-CoV-2 E protein; remark: listed apart in the source
[5] = tested on: SARS-CoV-2; conditions: for protection, effect on cell survival (FIG. 24 legend): individual 3a protein inhibitor at a concentration of 3 μM; for cell survival (in words): sole compound at 3, FIG. 24; for effectiveness of compounds on their own: sole compounds, protection of cells against viral death
[6] = 3,000 molecules screened against 3a protein
[7] = 3000 molecules screened against E protein

T1 sequence (P0DTC4 whole entry, looked up): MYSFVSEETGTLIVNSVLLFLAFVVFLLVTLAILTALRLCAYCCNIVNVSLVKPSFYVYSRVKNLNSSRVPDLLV
SARS-CoV-2 3a protein, sequence (P0DTC3 whole entry, looked up): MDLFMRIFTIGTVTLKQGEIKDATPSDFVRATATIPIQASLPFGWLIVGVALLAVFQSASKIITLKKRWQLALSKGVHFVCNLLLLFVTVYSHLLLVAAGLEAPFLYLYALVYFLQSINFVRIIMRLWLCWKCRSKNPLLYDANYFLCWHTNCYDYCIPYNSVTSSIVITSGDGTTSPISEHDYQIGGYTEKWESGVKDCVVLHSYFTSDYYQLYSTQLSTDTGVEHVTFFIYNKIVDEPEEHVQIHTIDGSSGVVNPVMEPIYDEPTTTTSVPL

Compound: N=C(N)c1ccc(OCCCCCOc2ccc(C(=N)N)cc2)cc1 [Pentamidine, 4,4′-[pentane-1,5-diylbis(oxy)]dibenzenecarboximidamide]
- outcome of screen: SARS-CoV-2 3a protein inhibitor [1, 6]: can be used as SARS-CoV-2 3a protein inhibitor

Compound: CC12CC3CC(C)(C1)CC(N)(C3)C2 [Memantine, 1-amino-3,5-dimethyladamantane]
- bacterial growth in negative assay [2]: enhance bacterial growth
- bacterial growth in positive assay [3]: inhibited growth
- outcome of screen: SARS-CoV-2 E protein channel blocker [4, 7]: can be used as SARS-CoV-2 E protein channel blocker

Compound: C1CNCCNCCNCCN1 [Cyclen, 1,4,7,10-Tetraazacyclododecane]
- outcome of screen: SARS-CoV-2 E protein channel blocker [4, 7]: can be used as SARS-CoV-2 E protein channel blocker

Compound: NCCCCN(Cc1nc2ccccc2[nH]1)[C@H]1CCCc2cccnc21 [Mavorixafor, N-(1H-benzimidazol-2-ylmethyl)-N-[(8S)-5,6,7,8-tetrahydroquinolin-8-yl]butane-1,4-diamine]
- outcome of screen: SARS-CoV-2 E protein channel blocker [4, 7]: can be used as SARS-CoV-2 E protein channel blocker

Compound: Capreomycin
- outcome of screen: SARS-CoV-2 3a protein inhibitor [1, 6]: can be used as SARS-CoV-2 3a protein inhibitor

Compound: CCO[C@@H](Cc1ccc(OCCn2c(C)ccc2-c2ccc(SC)cc2)cc1)C(=O)O [Saroglitazar Magnesium, (αS)-α-Ethoxy-4-[2-[2-methyl-5-[4-(methylthio)phenyl]-1H-pyrrol-1-yl]ethoxy]benzenepropanoic Acid]
- outcome of screen: SARS-CoV-2 E protein channel blocker [4, 7]: can be used as SARS-CoV-2 E protein channel blocker

Compound: Cc1ccc(S(=O)(=O)NC(=O)NN2CC3CCCC3C2)cc1 (stereo not shown) [Gliclazide, 1-(3-azabicyclo(3.3.0)oct-3-yl)-3-(p-tolylsulfonyl)urea]
- bacterial growth in negative assay [2]: enhance bacterial growth
- bacterial growth in positive assay [3]: inhibited growth
- outcome of screen: SARS-CoV-2 E protein channel blocker [4, 7]: can be used as SARS-CoV-2 E protein channel blocker

Compound: O=c1[nH]c(=O)n(C2CC(O)C(CO)O2)cc1F (stereo not shown) [Floxuridine, 5-Fluoro-1-[4-hydroxy-5-(hydroxymethyl)tetrahydrofuran-2-yl]-1H-pyrimidine-2,4-dione]
- outcome of screen: SARS-CoV-2 3a protein inhibitor [1, 6]: can be used as SARS-CoV-2 3a protein inhibitor

Compound: CN[C@@H]1[C@H](O)[C@H](NC)[C@H]2O[C@@]3(O)C(=O)C[C@@H](C)O[C@H]3O[C@@H]2[C@H]1O [Spectinomycin]
- outcome of screen: SARS-CoV-2 3a protein inhibitor [1, 6]: can be used as SARS-CoV-2 3a protein inhibitor

Compound: C[C@H]1O[C@H](OC2[C@@H](O)[C@@H](O)C(O)[C@H](O)[C@H]2O)[C@@H](N)C[C@@H]1N=C(N)C(=O)O (stereo partly drawn) [Kasugamycin, 2-amino-2-[(2R,3 S,5 S,6R)-5-amino-2-methyl-6-[(2R,3 S,5S,6S)-2,3,4,5,6-pentahydroxycyclohexyl]oxyoxan-3-yl]iminoacetic acid]
- outcome of screen: SARS-CoV-2 E protein channel blocker [4, 7]: can be used as SARS-CoV-2 E protein channel blocker
- outcome of screen: SARS-CoV-2 3a protein inhibitor [1, 6]: can be used as SARS-CoV-2 3a protein inhibitor

Compound: Cc1ncc(NC(=O)c2ccc(CN3CCN(C)CC3)c(C(F)(F)F)c2)cc1Nc1nccc(-c2cccnc2)n1 [Flumatinib, 4-[(4-methylpiperazin-1-yl)methyl]-N-[6-methyl-5-[(4-pyridin-3-ylpyrimidin-2-yl)amino]pyridin-3-yl]-3-(trifluoromethyl)benzamide]
- outcome of screen: SARS-CoV-2 3a protein inhibitor [1, 6]: can be used as SARS-CoV-2 3a protein inhibitor
- protection, effect on cell survival (FIG. 24 legend) [5]: near full protection
- cell survival (in words) [5]: near full survival
- effectiveness of compounds on their own [5]: most effective

Compound: CCN(CC)CCN(Cc1ccc(-c2ccc(C(F)(F)F)cc2)cc1)C(=O)Cn1c(SCc2ccc(F)cc2)nc(=O)c2c1CCC2 [Darapladib, N-(2-Diethylaminoethyl)-2-[2-[(4-fluorophenyl)methylsulfanyl]-4-oxo-6,7-dihydro-5H-cyclopenta[d]pyrimidin-1-yl]-N-[[4-[4-(trifluoromethyl)phenyl]phenyl]methyl]acetamide]
- outcome of screen: SARS-CoV-2 3a protein inhibitor [1, 6]: can be used as SARS-CoV-2 3a protein inhibitor
- protection, effect on cell survival (FIG. 24 legend) [5]: near full protection
- cell survival (in words) [5]: full survival
- effectiveness of compounds on their own [5]: most effective

Compound: c1cc(CN2CCCNCCNCCCNCC2)ccc1CN1CCCNCCNCCCNCC1 [Plerixafor, 1-[[4-(1,4,8,11-tetrazacyclotetradec-1-ylmethyl)phenyl]methyl]-1,4,8,11-tetrazacyclotetradecane]
- outcome of screen: SARS-CoV-2 E protein channel blocker [4]: can be used as SARS-CoV-2 E protein channel blocker
- outcome of screen: SARS-CoV-2 3a protein inhibitor [1]: can be used as SARS-CoV-2 3a protein inhibitor

Compound: CCNCCS(=O)(=O)NC[C@@]1(c2ccccc2)SC(NC(=O)C(C)(C)C)=NN1C(=O)C(C)(C)C [Litronesib, N-[(5R)-4-(2,2-dimethylpropanoyl)-5-[[2-(ethylamino)ethylsulfonylamino]methyl]-5-phenyl-1,3,4-thiadiazol-2-yl]-2,2-dimethylpropanamide]
- outcome of screen: SARS-CoV-2 3a protein inhibitor [1, 6]: can be used as SARS-CoV-2 3a protein inhibitor

Compound: Cc1cc(C)c(NC(=O)CN(CC(=O)O)CC(=O)O)c(C)c1Br [Mebrofenin, 2-[[2-(3-bromo-2,4,6-trimethylanilino)-2-oxoethyl]-(carboxymethyl)amino]acetic acid]
- outcome of screen: SARS-CoV-2 E protein channel blocker [4, 7]: can be used as SARS-CoV-2 E protein channel blocker

Compound: Nc1ncn([C@@H]2O[C@H](CO)[C@@H](O)[C@H]2O)c(=O)n1 [Azacytidine, 4-Amino-1-β-D-ribofuranosyl-s-triazin-2(1H)-one]
- outcome of screen: SARS-CoV-2 E protein channel blocker [4, 7]: can be used as SARS-CoV-2 E protein channel blocker
